# Where “and” joins values, the source holds several entries; their conditions need not be identical. Equal entries are not always repeated. Toxic doses and inconclusive results are not listed.
# System: P388 leukemia ip, CD2F1 mice, survival T/C
# Experiment: NCI In Vivo Anticancer Drug Screen. Data for tumor model P388 Leukemia (intraperitoneal) in CD2F1 (CDF1) mice
# Conditions: endpoint: median survival time, higher = longer survival
# Outline: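 Mice carrying the transplanted tumor received test compound or vehicle. Survival was recorded in each group, and the value is the treated-group measurement divided by that of the vehicle-treated control group.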
# [1] = dose: 50.0 mg/kg/injection, schedule: Q01DX005 (ip), vehicle: saline with Tween-80
# [2] = dose: 100.0 mg/kg/injection, schedule: Q01DX005 (ip), vehicle: saline with Tween-80
# [3] = dose: 200.0 mg/kg/injection, schedule: Q01DX005 (ip), vehicle: saline with Tween-80
# [4] = dose: 60.0 mg/kg/injection, schedule: Q01DX005 (ip), vehicle: saline with Tween-80
# [5] = dose: 120.0 mg/kg/injection, schedule: Q01DX005 (ip), vehicle: saline with Tween-80
# [6] = dose: 50.0 mg/kg/injection, schedule: Q01DX009 (ip), vehicle: saline
# [7] = dose: 100.0 mg/kg/injection, schedule: Q01DX009 (ip), vehicle: saline
# [8] = dose: 200.0 mg/kg/injection, schedule: Q01DX009 (ip), vehicle: saline
# [9] = dose: 400.0 mg/kg/injection, schedule: Q01DX009 (ip), vehicle: saline
# [10] = dose: 50.0 mg/kg/injection, schedule: Q01DX005 (ip), vehicle: Klucel (hydroxypropylcellulose) (HPC)
# [11] = dose: 100.0 mg/kg/injection, schedule: Q01DX005 (ip), vehicle: Klucel (hydroxypropylcellulose) (HPC)
# [12] = dose: 200.0 mg/kg/injection, schedule: Q01DX005 (ip), vehicle: Klucel (hydroxypropylcellulose) (HPC)
# [13] = dose: 100.0 mg/kg/injection, schedule: Q01DX009 (ip), vehicle: Klucel (hydroxypropylcellulose) (HPC)
# [14] = dose: 200.0 mg/kg/injection, schedule: Q01DX009 (ip), vehicle: Klucel (hydroxypropylcellulose) (HPC)
# [15] = dose: 50.0 mg/kg/injection, schedule: Q01DX009 (ip), vehicle: Klucel (hydroxypropylcellulose) (HPC)
# [16] = dose: 100.0 mg/kg/injection, schedule: Q01DX001 (ip), vehicle: saline with Tween-80
# [17] = dose: 200.0 mg/kg/injection, schedule: Q01DX001 (ip), vehicle: saline with Tween-80
# [18] = dose: 400.0 mg/kg/injection, schedule: Q01DX001 (ip), vehicle: saline with Tween-80
# [19] = dose: 25.0 mg/kg/injection, schedule: Q01DX009 (ip), vehicle: saline
structure (smiles),measurement,setting,value
O=C(NC1=NN(c2ccccc2)C(=O)C1)c1ccccc1,T/C,"dose: 9.37 mg/kg/injection, schedule: Q01DX009 (ip), vehicle: saline",101 % of control
same,T/C,"dose: 18.75 mg/kg/injection, schedule: Q01DX009 (ip), vehicle: saline",110 % of control
same,T/C,"dose: 37.5 mg/kg/injection, schedule: Q01DX009 (ip), vehicle: saline",98 % of control
CC(NC(=O)OC(C)(C)C)C(=O)ON1C(=O)CCC1=O (stereo unspecified),T/C,[1],108 % of control
same,T/C,[2],114 % of control
same,T/C,[3],104 % of control
CCO/C=C1/N=C(Cc2ccc(Br)cc2)OC1=O,T/C,[4],94 % of control
same,T/C,[5],90 % of control
CCN(CC)CCN=c1c(C)nc(C#N)c(N)n1O,T/C,"dose: 10.0 mg/kg/injection, schedule: Q01DX009 (ip), vehicle: saline with Tween-80",100 % of control and 102 % of control and 105 % of control
same,T/C,"dose: 20.0 mg/kg/injection, schedule: Q01DX009 (ip), vehicle: saline with Tween-80",100 % of control and 118 % of control and 96 % of control
same,T/C,"dose: 40.0 mg/kg/injection, schedule: Q01DX009 (ip), vehicle: saline with Tween-80",98 % of control and 103 % of control
same,T/C,"dose: 80.0 mg/kg/injection, schedule: Q01DX009 (ip), vehicle: saline with Tween-80",98 % of control and 106 % of control
CCOC(=O)CC1(C)OCCO1,T/C,[6],98 % of control
same,T/C,[7],99 % of control
same,T/C,[8],99 % of control
same,T/C,[9],101 % of control
COc1ccc(OCCCBr)c(Br)c1,T/C,[10],101 % of control
same,T/C,[11],97 % of control
same,T/C,[12],104 % of control
Cc1ccc(S(=O)(=O)OCC2CCCC2COS(=O)(=O)c2ccc(C)cc2)cc1 (stereo unspecified),T/C,[13],100 % of control
same,T/C,[14],106 % of control
same,T/C,"dose: 400.0 mg/kg/injection, schedule: Q01DX009 (ip), vehicle: Klucel (hydroxypropylcellulose) (HPC)",105 % of control
Cc1n(-c2ccccc2)nn[n+]1C,T/C,"dose: 12.5 mg/kg/injection, schedule: Q01DX009 (ip), vehicle: Klucel (hydroxypropylcellulose) (HPC)",116 % of control and 92 % of control
same,T/C,"dose: 25.0 mg/kg/injection, schedule: Q01DX009 (ip), vehicle: Klucel (hydroxypropylcellulose) (HPC)",101 % of control
same,T/C,[15],103 % of control and 91 % of control
Cn1c2cc(O)cc(O)c2c(=O)c2cccc([N+](=O)[O-])c21,T/C,[16],104 % of control
same,T/C,[17],103 % of control
same,T/C,[18],101 % of control
[CH3][Ge]([CH3])([CH3])/[C](=[C](\c1ccccc1)[Ge]([CH3])([CH3])[CH3])c1ccccc1,T/C,[6],106 % of control
same,T/C,[7],92 % of control
same,T/C,[8],93 % of control
COc1ccc(/C=C/c2ccc3ccccc3[n+]2C)c(OC)c1OC,T/C,"dose: 0.63 mg/kg/injection, schedule: Q01DX009 (ip), vehicle: Klucel (hydroxypropylcellulose) (HPC)",107 % of control
same,T/C,"dose: 1.25 mg/kg/injection, schedule: Q01DX009 (ip), vehicle: Klucel (hydroxypropylcellulose) (HPC)",110 % of control
same,T/C,"dose: 5.0 mg/kg/injection, schedule: Q01DX009 (ip), vehicle: Klucel (hydroxypropylcellulose) (HPC)",107 % of control
O=Cc1ccc(O)c(O)c1,T/C,[6],106 % of control and 109 % of control
same,T/C,[7],110 % of control
same,T/C,[9],107 % of control
CC(=O)CC(c1ccccc1)C(C(=O)O)c1ccccc1 (stereo unspecified),T/C,"dose: 100.0 mg/kg/injection, schedule: Q04DX003 (ip), vehicle: saline",93 % of control
same,T/C,"dose: 200.0 mg/kg/injection, schedule: Q04DX003 (ip), vehicle: saline",100 % of control
same,T/C,"dose: 400.0 mg/kg/injection, schedule: Q04DX003 (ip), vehicle: saline",100 % of control
CCCCOCCOCCOC1C2CC3C1C3(OCCOCCOCCCC)C2 (stereo unspecified),T/C,[6],104 % of control
same,T/C,[7],99 % of control
same,T/C,[8],104 % of control
COc1ccc(OC)c(NC(=O)Nc2ncccn2)c1,T/C,[15],106 % of control
same,T/C,[13],100 % of control
same,T/C,[14],103 % of control
O=C(NC(Cc1ccc(OC(=O)OCc2ccccc2)cc1)C(=O)O)OCc1ccccc1 (stereo unspecified),T/C,[1],99 % of control
same,T/C,[2],90 % of control
same,T/C,[3],101 % of control
Nc1cc(S(=O)(=O)F)ccc1Cl,T/C,"dose: 100.0 mg/kg/injection, schedule: Q04DX003 (ip), vehicle: saline with Tween-80",100 % of control
same,T/C,"dose: 200.0 mg/kg/injection, schedule: Q04DX003 (ip), vehicle: saline with Tween-80",106 % of control
COC(CNC(=O)COc1ccccc1OCC(=O)NCC(OC)OC)OC,T/C,"dose: 50.0 mg/kg/injection, schedule: Q01DX005 (ip), vehicle: saline",99 % of control
same,T/C,"dose: 100.0 mg/kg/injection, schedule: Q01DX005 (ip), vehicle: saline",102 % of control
same,T/C,"dose: 200.0 mg/kg/injection, schedule: Q01DX005 (ip), vehicle: saline",102 % of control
CC([NH-])CC(C)[NH-].[I][Pt+2][I] (stereo unspecified),T/C,"dose: 12.5 mg/kg/injection, schedule: Q04DX002 (ip), vehicle: saline with Tween-80",169 % of control and 150 % of control
same,T/C,"dose: 25.0 mg/kg/injection, schedule: Q04DX002 (ip), vehicle: saline with Tween-80",163 % of control and 157 % of control
COc1ccc(CSC(=S)Nc2cccc(S(F)(F)(F)(F)F)c2)cc1,T/C,"dose: 12.5 mg/kg/injection, schedule: Q01DX009 (ip), vehicle: saline with Tween-80",97 % of control
same,T/C,"dose: 12.5 mg/kg/injection, schedule: Q01DX009 (ip), vehicle: saline",104 % of control
same,T/C,"dose: 25.0 mg/kg/injection, schedule: Q01DX009 (ip), vehicle: saline with Tween-80",100 % of control
same,T/C,[19],98 % of control
same,T/C,"dose: 50.0 mg/kg/injection, schedule: Q01DX009 (ip), vehicle: saline with Tween-80",100 % of control
same,T/C,[6],100 % of control and 119 % of control
same,T/C,[7],116 % of control
same,T/C,[8],118 % of control
COCC1(C)CCCC2(C)C1CCC1(O)CCCCC12O (stereo unspecified),T/C,"dose: 100.0 mg/kg/injection, schedule: Q01DX001 (ip), vehicle: saline",100 % of control
same,T/C,"dose: 200.0 mg/kg/injection, schedule: Q01DX001 (ip), vehicle: saline",100 % of control
same,T/C,"dose: 400.0 mg/kg/injection, schedule: Q01DX001 (ip), vehicle: saline",108 % of control
CCOc1c(N=Nc2ccc(Cl)cc2Cl)c(C)nn1C(=S)S,T/C,"dose: 60.0 mg/kg/injection, schedule: Q01DX005 (ip), vehicle: Klucel + Tween-80",90 % of control
same,T/C,"dose: 120.0 mg/kg/injection, schedule: Q01DX005 (ip), vehicle: Klucel + Tween-80",103 % of control
same,T/C,"dose: 240.0 mg/kg/injection, schedule: Q01DX005 (ip), vehicle: Klucel + Tween-80",100 % of control
CSC(SC)(C(=O)O)c1cc(-c2c(Cl)cccc2Cl)no1,T/C,[4],93 % of control
same,T/C,[5],102 % of control
NC(=O)c1cn(CCO)nc1[N+](=O)[O-],T/C,[6],100 % of control
same,T/C,[7],100 % of control
same,T/C,[8],119 % of control
C[CH2][Sn]([CH2]C)([S]CCS(=O)(=O)O)[S]CCS(=O)(=O)O (tested in a mixture with another compound),T/C,"dose: 7.5 mg/kg/injection, schedule: Q01DX005 (ip), vehicle: saline",123 % of control
CCn1ccc(NS(=O)(=O)c2ccc(N)cc2)nc1=O,T/C,[10],98 % of control
same,T/C,[11],105 % of control
same,T/C,[12],100 % of control
CC(C)(C)N1C(=O)NCS1(=O)=O,T/C,[10],100 % of control
same,T/C,[11],100 % of control
same,T/C,[12],115 % of control
Nc1cc(C(F)(F)F)ccc1S,T/C,"dose: 3.0 mg/kg/injection, schedule: Q01DX009 (ip), vehicle: DMSO",94 % of control
same,T/C,"dose: 6.0 mg/kg/injection, schedule: Q01DX009 (ip), vehicle: DMSO",103 % of control
same,T/C,"dose: 12.5 mg/kg/injection, schedule: Q01DX009 (ip), vehicle: DMSO",90 % of control
COC(=O)C(C)c1[nH]c2ccccc2c1[Se]c1ccccc1 (stereo unspecified),T/C,[16],102 % of control
same,T/C,[17],106 % of control
same,T/C,[18],94 % of control
C[n+]1cc2c3ccccc3ccc2c2ccccc21,T/C,"dose: 12.5 mg/kg/injection, schedule: Q04DX003 (ip), vehicle: distilled water + Tween-80",113 % of control
same,T/C,"dose: 25.0 mg/kg/injection, schedule: Q04DX003 (ip), vehicle: distilled water + Tween-80",105 % of control
Oc1cccnc1,T/C,[19],100 % of control and 103 % of control
same,T/C,[6],99 % of control and 102 % of control
same,T/C,[7],102 % of control and 103 % of control
same,T/C,[8],103 % of control and 112 % of control
same,T/C,[9],100 % of control and 108 % of control
same,T/C,"dose: 600.0 mg/kg/injection, schedule: Q01DX009 (ip), vehicle: saline",102 % of control and 111 % of control
